Laboratory results as given in paper PMC11747885, “Potent inhibitors of the human RNA ligase Rlig1 highlights its role in RNA integrity maintenance under oxidative cellular stress” (Chemical Science, 2025).
Values joined by “and” are separate entries in the source; they are usually repeats but may differ in a detail not shown here. Equal entries are not always repeated. Where two headings read alike, the source gives them in different places.

Tests used:
[1] = biological target: T1, Rlig1-AMP (Homo sapiens, UniProt Q8N999); test: FRET-based high-throughput screening of inhibitors for Rlig1-AMP; type: biochemical; conditions: for Raw data [w Enyzm]: with enzyme; for Raw data [w/o Enzym]: without enzyme
T1 construct: made in house; host or cells: E. coli BL21 (DE3), pET15b-Rlig1
T1 sequence (Q8N999 whole entry): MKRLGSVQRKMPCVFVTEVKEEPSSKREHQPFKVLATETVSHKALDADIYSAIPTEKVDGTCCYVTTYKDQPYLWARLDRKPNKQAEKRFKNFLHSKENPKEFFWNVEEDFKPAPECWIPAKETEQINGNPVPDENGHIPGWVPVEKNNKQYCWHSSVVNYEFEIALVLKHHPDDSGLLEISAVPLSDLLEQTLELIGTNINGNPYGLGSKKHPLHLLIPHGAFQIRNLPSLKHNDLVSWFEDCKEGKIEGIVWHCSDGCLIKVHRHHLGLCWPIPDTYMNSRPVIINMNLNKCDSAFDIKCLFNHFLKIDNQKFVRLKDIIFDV

[2] = ref MedChemExpress, cited from earlier work
[3] = biological target: ATPase family AAA domain-containing protein 2 (ATAD2); design: method as in MedChemExpress; conditions: ref MedChemExpress; cited from earlier work
[4] = tested on: CXXC5-DVL; design: method as in MedChemExpress; conditions: ref MedChemExpress; cited from earlier work
[5] = DMSO; ref MedChemExpress; cited from earlier work
[6] = tested on: GSK3β; design: method as in MedChemExpress; conditions: ref MedChemExpress; cited from earlier work
[7] = tested on: Pim-1; design: method as in MedChemExpress; conditions: ref MedChemExpress; cited from earlier work
[8] = tested on: Pim-2; design: method as in MedChemExpress; conditions: ref MedChemExpress; cited from earlier work
[9] = tested on: Pim-3; design: method as in MedChemExpress; conditions: ref MedChemExpress; cited from earlier work
[10] = tested on: NLRP3 inflammasome; design: method as in MedChemExpress; conditions: ref MedChemExpress; cited from earlier work
[11] = biological target: wild-type h5-HT1B; design: method as in MedChemExpress; conditions: ref MedChemExpress; cited from earlier work
[12] = biological target: wild-type h5-HT1D; design: method as in MedChemExpress; conditions: ref MedChemExpress; cited from earlier work
[13] = tested on: MAGL; design: method as in MedChemExpress; conditions: ref MedChemExpress; cited from earlier work
[14] = tested on: TMEM16A chloride channel; design: method as in MedChemExpress; conditions: ref MedChemExpress; cited from earlier work
[15] = biological target: LTB4 receptor; design: method as in MedChemExpress [1]; conditions: isolated human neutrophil cell membranes; ref MedChemExpress [1]; cited from earlier work
[16] = tested on: Marburg (MARV); conditions: ref MedChemExpress [1][2]; cited from earlier work
[17] = tested on: EBOV Zaire; conditions: ref MedChemExpress [1][2]; read-out: IC50 infectious EBOV Zaire; cited from earlier work
[18] = tested on: human p53 and CREB binding protein association; design: method as in MedChemExpress; conditions: at 50 μM; ref MedChemExpress; cited from earlier work
[19] = tested on: JNK3; design: method as in MedChemExpress; conditions: ref MedChemExpress; cited from earlier work
[20] = tested on: JNK1; design: method as in MedChemExpress; conditions: ref MedChemExpress; cited from earlier work
[21] = tested on: JNK2; design: method as in MedChemExpress; conditions: ref MedChemExpress; cited from earlier work
[22] = tested on: hERG channel; design: method as in MedChemExpress; conditions: ref MedChemExpress; cited from earlier work
[23] = tested on: RNA synthesis; design: method as in MedChemExpress; conditions: ref MedChemExpress; cited from earlier work
[24] = tested on: DNA synthesis; design: method as in MedChemExpress; conditions: ref MedChemExpress; cited from earlier work
[25] = biological target: human DNA topoisomerase I; design: method as in MedChemExpress; conditions: ref MedChemExpress; cited from earlier work
[26] = design: method as in MedChemExpress; conditions: OGTT, oral 1 h prior to dextrose challenge, ref MedChemExpress, cited from earlier work
[27] = tested on: IKr, Cav1.2, and Nav1.5; design: method as in MedChemExpress; conditions: ion channel activity; ref MedChemExpress; cited from earlier work
[28] = tested on: all proteases tested; design: method as in MedChemExpress; conditions: selectivity; ref MedChemExpress; cited from earlier work
[29] = in DMSO; ref MedChemExpress; cited from earlier work
[30] = biological target: 168 radioligand binding or enzymatic assays; design: method as in MedChemExpress; conditions: MDS Pharma, ref MedChemExpress, read-out: IC50 in all counterscreen assays; cited from earlier work
[31] = tested on: DPP-4; design: method as in MedChemExpress [1]; conditions: ref MedChemExpress [1]; cited from earlier work
[32] = HTS hits, difference of raw data w/o and w enzyme
[33] = HTS hits, MedChemExpress library
[34] = HTS hits, difference of raw data without and with enzyme
[35] = sheet HTS hits, MedChemExpress library
[36] = sheet HTS hits, difference of raw data w/o and w enzyme

COc1cc(Cl)c(C(=O)N[C@@H](CN[C@H]2CC[C@@H](N)CC2)Cc2ccc(C#N)cc2)cc1-c1ccc(CN[C@H](C)c2ccc(C)cc2)o1 [BAY-850]
1-D Distance [1, 32]: 2218
Raw data [w Enyzm] ([1]; HTS hits): 10576
Raw data [w/o Enzym] ([1]; HTS hits): 12794
solubility ([2]; DMSO): 62.5 mg/mL and 95.53 mM
solubility ([2]; H2O): < 0.1 mg/mL
IC50 [3]: 166 nM

CON=C1C(=C2C(=O)Nc3cc(Cl)c(Cl)cc32)Nc2ccccc21 [KY19382]
IC50 [4]: 19 nM
1-D Distance.npi [1, 33]: 101.229
1-D Distance [1, 34]: 138
Raw data [w Enyzm] ([1]; HTS hits): 6054
Raw data [w/o Enzym] ([1]; HTS hits): 6192
solubility [5]: 5 mg/mL and 13.88 mM
IC50 [6]: 10 nM

CN1CCCN(C(=O)c2cccc(-c3ccc(/C=C4/C(=O)Nc5ccc(Cl)cc54)o3)c2)CC1.Cl [CX-6258 (hydrochloride)]
1-D Distance.npi [1, 33]: 75.5915
1-D Distance [1, 34]: 1601
Raw data [w Enyzm] ([1]; HTS hits): 4989
Raw data [w/o Enzym] ([1]; HTS hits): 6590
IC50 [8]: 25 nM
IC50 [9]: 16 nM

CC(C)n1ccc(S(=O)(=O)NC(=O)Nc2c3c(cc4c2CCC4)CCC3)n1 [Emlenoflast (sodium)]
IC50 [10]: < 100 nM
1-D Distance.npi [1, 33]: 80.6711
1-D Distance [1, 34]: 1207
Raw data [w Enyzm] ([1]; HTS hits): 9218
Raw data [w/o Enzym] ([1]; HTS hits): 10425

COc1ccc(NC(=O)c2ccc(-c3ccncc3)c(C)c2)cc1N1CCN(C)CC1 [GR 125743]
1-D Distance [1, 32]: 1429
Raw data [w Enyzm] ([1]; HTS hits): 8833
Raw data [w/o Enzym] ([1]; HTS hits): 10262
solubility ([2]; DMSO): 100 mg/mL and 240.08 mM
pKi [11]: 8.85
pKi [12]: 8.31

CC(C)c1ccc(C(=O)C2CCN(C(=O)c3cc(O)ccc3F)CC2)cc1 [MAGL-IN-1]
IC50 [13]: 80 nM
1-D Distance.npi [1, 33]: 70.8371
1-D Distance [1, 34]: 1819
Raw data [w Enyzm] ([1]; HTS hits): 9200
Raw data [w/o Enzym] ([1]; HTS hits): 11019

CC(C)=CC[C@@H](O)C1=CC(=O)c2c(O)ccc(O)c2C1=O [Shikonin]
1-D Distance [1, 34]: 1574
Raw data [w Enyzm] ([1]; HTS hits): 3611
IC50 [14]: 6500 nM

CC(C)(c1ccc(O)cc1)c1ccc(OCc2cccc(COc3ccc(C(=N)N)cc3)c2)cc1.Cl [BIIL-260 (hydrochloride)]
1-D Distance.npi [1, 35]: 102.737
1-D Distance [1, 36]: 216
Raw data [w Enyzm] ([1]; sheet HTS hits): 4623
Raw data [w/o Enzym] ([1]; sheet HTS hits): 4407
Ki [15]: 1.7 nM

CN(C)CCOc1ccc(/C(=C(/CCCl)c2ccccc2)c2ccccc2)cc1.O=C(O)CC(O)(CC(=O)O)C(=O)O [Toremifene (citrate)]
IC50 [16]: 2600 nM
1-D Distance.npi [1, 35]: 77.3877
1-D Distance [1, 36]: 1366
Raw data [w Enyzm] ([1]; sheet HTS hits): 9443
IC50 [17]: 70 nM

CC(=O)n1c2c(c3ccccc31)CCCC2=O [MS7972]
1-D Distance [1, 32]: 1206
1-D Distance.npi ([1]; HTS hits, normalized value (npi)): 81.4632
Raw data [w Enyzm] ([1]; HTS hits): 8943
Raw data [w/o Enzym] ([1]; HTS hits): 10149
block of BRD interaction [18]: MS7972 is a small molecule that blocks human p53 and CREB binding protein association. MS7972 can almost completely block this BRD interaction at 50 μM[1].

O=C1Nc2ccccc2/C1=C1/Nc2ccccc2/C1=N\O [Indirubin-3′-oxime]
IC50 [19]: 1000 nM
1-D Distance.npi [1, 33]: 72.577
1-D Distance [1, 34]: 1766
Raw data [w Enyzm] ([1]; HTS hits): 1847
Raw data [w/o Enzym] ([1]; HTS hits): 3613
IC50 [20]: 800 nM
IC50 [21]: 1400 nM

Tannic acid
1-D Distance.npi [1, 33]: 92.4189
1-D Distance [1, 34]: 691
Raw data [w Enyzm] ([1]; HTS hits): 13343
Raw data [w/o Enzym] ([1]; HTS hits): 14034
IC50 [22]: 3400 nM

CCc1c2c(nc3ccc(O)cc13)-c1cc3c(c(=O)n1C2)COC(=O)[C@]3(O)CC [SN-38]
1-D Distance.npi [1, 33]: 72.669
1-D Distance [1, 34]: 1812
Raw data [w Enyzm] ([1]; HTS hits): 9411
Raw data [w/o Enzym] ([1]; HTS hits): 11223
IC50 [23]: 1300 nM
solubility [5]: 50 mg/mL and 127.42 mM
IC50 [24]: 77 nM

COc1cccc2c1C(=O)c1c(O)c3c(c(O)c1C2=O)C[C@@](O)(C(=O)CO)C[C@@H]3O[C@H]1C[C@H](N)[C@H](O)[C@H](C)O1.Cl [Doxorubicin (hydrochloride)]
1-D Distance.npi [1, 33]: 103.376
1-D Distance [1, 34]: 134
Raw data [w Enyzm] ([1]; HTS hits): 1247
IC50 [25]: 800 nM

CS(=O)(=O)n1cc2c(n1)CN([C@H]1CO[C@H](c3cc(F)ccc3F)[C@@H](N)C1)C2 [Omarigliptin]
1-D Distance [1, 36]: 1732
Raw data [w Enyzm] ([1]; sheet HTS hits): 9138
Raw data [w/o Enzym] ([1]; sheet HTS hits): 10870
reduction in glucose AUC ([26]; 0.01 mg/kg): 7%
reduction in glucose AUC ([26]; 0.3 mg/kg): 51%
IC50 [27]: > 30000 nM
IC50 [28]: > 67000 nM
solubility, DMSO [29]: DMSO : 50 mg/mL (125.49 mM; Need ultrasonic)
IC50 [30]: > 10000 nM
IC50 [31]: 1.6 nM
